Experiments:
T48 cells = test: Fluorescent apoptotic assay (Staurosporine, MR(DEVD)2) in TrkB stably transfected T48 cells; type: cell-based, murine
From the text: Create and test reporter cell lines. In order to identify small molecules that mimic BDNF and activate TrkB, TrkB stably transfected murine cell lines were created. The T48 and T62 cell lines were created by transfecting basal forebrain SN56 cells, which express negligible TrkB, with a TrkB expression construct. […] To test resistance to apoptosis, SN56 cells and the T48 cell line were either untreated or treated with BDNF, and then subjected to an apoptotic assay. Briefly, the cells were treated with 0.75 μM Staurosporine for 9 hours, and 1 hour before the termination of the experiment, the cells were treated with 10 μM MR (DEVD)2. The cells were then fixed with 4% paraformaldehyde for 15 minutes, washed with phosphate buffered saline (PBS), and incubated with Hoechst 33342 for 10 minutes. Cover slides were washed with PBS, mounted, and the cells were examined using a fluorescent microscope to see which cells turned red upon caspase cleavage.
Cell-based screen. To screen a large number of chemicals, a cell-based apoptic assay was developed using a cell permeable fluorescent dye, MR (DEVD)2, which turns red upon caspase cleavage in apoptotic cells. SN56 and T48 cells were plated at 10,000 cells per well in multiple 96-well plates and exposed to 2000 biologically active compounds from the Spectrum Collection Library for 30 minutes at a concentration of 10 μM in DMSO. Following exposure to the compounds, the cells were subjected to the developed fluorescent apoptotic assay described above (method schematically shown in FIG. 2).
In the initial screen, 5 of the 66 positive compounds were flavone derivatives or similar compounds. […] To compare the apoptosis inhibitory activity, the flavone derivatives were preincubated with SN56 and T48 cells, and subsequently were subjected to the fluorescent apoptotic assay as described above. […] Additionally, the effective concentration at which 50% (EC50) of the cells are protected from apoptosis was determined for 7,8-dihydroxyflavone, Cianidanol, Pinocembrin and Diosmetin.

hippocampal neurons = test: Glutamate-triggered apoptosis in hippocampal neurons; type: cell-based; conditions: pretreated 30 minutes, 50 μM glutamate for 16 hours, compared with BDNF, FIG. 6
Procedure: To examine whether these compounds could promote neuronal survival, hippocampal neurons were prepared and the cultures were pretreated with various flavone derivatives for 30 minutes, followed by treatment with 50 μM glutamate for 16 hours.

Erk = test: Western analysis of Erk phosphorylation in hippocampal neurons; type: cell-based
Procedure: (§1) To further examine whether 7,8-dihydroxyflavone can stimulate TrkB-mediated downstream signaling cascades, Western analysis was performed.
To probe the time course of 7,8-dihydroxyflavone triggered TrkB activation, hippocampal neurons were treated with 7,8-dihydroxyflavone at 500 nM and phosphorylation of Erk and Akt was determined over time by Western analysis. […] Stimulation of Erk and Akt by 7,8-dihydroxyflavone also occurred in a dose dependent manner.

[1] = target: T1, TrkB extracellular domain (ECD) (Rattus norvegicus, UniProt Q63604); test: In vitro binding assay with [3H]7,8-dihydroxyflavone, filter, Scatchard plot: TrkB ECD
T1 construct: purified TrkB extracellular domain (ECD) and intracellular domain (ICD) recombinant proteins
T1 sequence (Q63604 32-429 limits assumed): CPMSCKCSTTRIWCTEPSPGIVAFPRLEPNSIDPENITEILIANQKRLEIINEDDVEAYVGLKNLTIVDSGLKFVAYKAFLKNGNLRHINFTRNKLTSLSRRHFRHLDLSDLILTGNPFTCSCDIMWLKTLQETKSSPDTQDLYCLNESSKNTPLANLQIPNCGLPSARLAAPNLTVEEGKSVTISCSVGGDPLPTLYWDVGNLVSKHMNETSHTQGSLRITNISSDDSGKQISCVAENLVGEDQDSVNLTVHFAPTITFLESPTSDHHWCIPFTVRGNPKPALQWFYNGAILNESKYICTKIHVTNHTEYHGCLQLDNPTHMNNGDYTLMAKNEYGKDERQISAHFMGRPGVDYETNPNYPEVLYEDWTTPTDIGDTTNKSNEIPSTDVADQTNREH
Procedure: To determine whether 7,8-dihydroxyflavone physically and directly binds the TrkB receptor, in vitro binding assays were conducted with purified TrkB extracellular domain (ECD) and intracellular domain (ICD) recombinant proteins. Purified TrkB ECD and ICD (10 μg of each) were incubated with different concentrations of ^3H-7,8-dihydroxyflavone in 1 ml of binding buffer (0.05M Na/K phosphate buffer, pH 7.1, 200 mM NaCl) at 4° C. for 10 minutes. After the incubation, the reaction mixture was loaded on filter paper. The mixture was washed three times with Tris buffer (100 mM Tris, pH 7.1), and the dried filter paper was put into a small vial and subjected to liquid scintillation counter analysis. […] The value of the dissociate constant and the number of sites were obtained from Scatchard plots using the equation r/[L]free=n/Kd−r/Kd, where r is the ratio of the concentration of bound ligand to the total protein concentration and n is the number of binding sites.

[2] = test system: ECD and ICD of TrkA receptor; test: In vitro binding assay: TrkA ECD and ICD
TrkB [3] = target: T2, TrkB (Mus musculus, UniProt P15209); test: Trk activation in cortical neurons from wild-type and TrkB-null pups: TrkB; type: cell-based, mice; conditions: wild-type but not TrkB-null neurons, FIG. 21
T2 construct: from tissue; host or cells: mouse brain
T2 sequence (P15209 32-821): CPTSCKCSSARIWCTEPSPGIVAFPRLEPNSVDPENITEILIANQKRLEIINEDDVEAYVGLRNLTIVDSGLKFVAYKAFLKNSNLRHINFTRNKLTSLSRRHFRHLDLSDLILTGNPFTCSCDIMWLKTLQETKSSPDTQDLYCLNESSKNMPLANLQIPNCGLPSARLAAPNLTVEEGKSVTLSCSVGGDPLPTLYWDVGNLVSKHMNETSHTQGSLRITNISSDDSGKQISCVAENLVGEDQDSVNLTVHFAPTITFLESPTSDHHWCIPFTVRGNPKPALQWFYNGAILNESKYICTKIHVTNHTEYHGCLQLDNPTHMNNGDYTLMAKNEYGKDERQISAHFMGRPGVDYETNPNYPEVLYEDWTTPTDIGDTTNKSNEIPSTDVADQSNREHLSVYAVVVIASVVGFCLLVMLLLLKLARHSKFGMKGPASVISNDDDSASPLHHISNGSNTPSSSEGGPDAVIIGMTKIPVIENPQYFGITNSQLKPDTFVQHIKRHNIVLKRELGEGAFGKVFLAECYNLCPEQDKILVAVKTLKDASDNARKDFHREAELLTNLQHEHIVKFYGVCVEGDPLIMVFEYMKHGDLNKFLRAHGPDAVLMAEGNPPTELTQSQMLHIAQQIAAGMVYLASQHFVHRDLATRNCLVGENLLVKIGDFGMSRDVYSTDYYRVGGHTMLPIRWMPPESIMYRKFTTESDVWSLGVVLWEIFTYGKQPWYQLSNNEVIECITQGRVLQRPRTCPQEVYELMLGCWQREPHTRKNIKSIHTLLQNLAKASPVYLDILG
Procedure: To determine whether 7,8-dihydroxyflavone can selectively activate TrkB receptor and prevent neuronal cell death, cortical neurons were prepared from homozygous pups of TrkB+/−mice, which were mated to the same genotype. […] Glutamate nonselectively elicited weak TrkA phosphorylation in both wild-type and TrkB-null neurons (FIG. 21, row 3).

TrkB [4] = target: T2, TrkB; test: Time course of TrkB activation in mouse brain; type: in vivo, C57BL/6J mice; conditions: 1 mg/kg, oral injection, FIG. 28
Procedure: To compare the stimulatory effect on TrkB receptor in mouse brain, 1 mg/kg of these compounds was injected into C57BL/6J mice and monitored TrkB activation at different time points (see FIG. 28). […] In contrast, 7,8-DHF triggered TrkB activation 2 h after oral injection and peaked at 4 h and TrkB activity progressively faded away. The TrkB activity was demonstrable even at 16 h (FIG. 28).

TrkB [5] = target: T2, TrkB; test: Immunoblotting of brain lysates from forced swim test mice: TrkB; type: in vivo; conditions: 5 mg/kg, 21 days oral, anti-p-TrkB 817, FIG. 35
Procedure: To explore whether 4′-DMA-7,8-DHF and 7,8-DHF have any antidepressant effect, a forced swim test (6 minutes, immobility recorded in the last 4 minutes) was conducted after chronic treatment of male C57BL/6J mice (8 mice/group) for 21 days via oral injection.

TrkB [6] = target: T3, TrkB (Rattus norvegicus, UniProt Q63604); test: Tyrosine phosphorylation of Trk receptors in transfected HEK293 cells: TrkB; type: cell-based; parameters: expressed in transfected cells; host or cells: HEK293; conditions: FIG. 15
T3 sequence (Q63604 32-821): as the sequence (P15209 32-821) above, with T3M, S9T, A10T, V32I, R63K, S84G, M153T, L185I, S394T, S770N counted along it
From the text: To determine if 7,8-dihydroxyflavone promoted tyrosine phosphorylation of the other Trk receptors, HEK293 cells were transfected with various Trk receptors, followed by treatment with 7,8-dihydroxyflavone.

TrkB [7] = target: T3, TrkB; test: Western analysis of TrkB activation in hippocampal neurons; type: cell-based; parameters: endogenous in cells; host or cells: primary hippocampal neurons; conditions: FIG. 9
Procedure: as §1
To further test that the stimulatory effect of 7,8-dihydroxyflavone is mediated through TrkB, cells were either untreated or treated with K252a, a selective inhibitor of the tyrosine kinase activity of the Trk family of neutrophin receptors.

O=c1cc(-c2ccccc2)oc2c(O)c(O)ccc12 [7,8-dihydroxyflavone]
EC50 (T48 cells; Mus musculus, read-out: effective concentration at which 50% (EC50) of the cells are protected from apoptosis): 0.035 µM | suppression of apoptosis in T48 cell line (T48 cells; Staurosporine-induced apoptosis, FIG. 1B and FIG. 4): strongly suppressed apoptosis | protection of hippocampal neurons from glutamate-induced apoptosis (hippocampal neurons): more protective effect on the neurons than did the positive control BDNF | time at which Erk phosphorylation was observed (Erk; 500 nM): 5 min | time by which Erk phosphorylation faded (Erk; 500 nM): 180 min | Erk activation (Western) (Erk; FIG. 9): activated | concentration at which Erk phosphorylation was observed (Erk; treatment for 30 minutes): 250 nM | Kd ([1]; Scatchard plot, 4° C., 10 minutes, FIG. 16, read-out: binding constant Kd): 0.32 µM | binding to TrkB ECD ([1]; gradual increments of [3H]-7,8-dihydroxyflavone): progressively bound TrkB ECD | binding to TrkA ECD or ICD [2]: Neither the ECD nor ICD of TrkA receptor was capable of binding | TrkB activation in wild-type neurons (TrkB [3]): specifically activates TrkB | TrkB activity at 16 h (TrkB [4]): demonstrable | time at which TrkB activation was elicited (TrkB [4]): 2 h | time at which TrkB activity peaked (TrkB [4]): 4 h | TrkB activation in mouse brain (TrkB [5]): provoke TrkB | tyrosine phosphorylation of TrkB receptor (TrkB [6]): elicited tyrosine phosphorylation | activation of TrkB (Western) (TrkB [7]): demonstrated activation of TrkB
